Measured values reported in patent US11896615B2, “Immunotherapy methods and compositions involving tryptophan metabolic pathway modulators” (Juno Therapeutics, Inc., priority 2016, dated 2024).
Entries after “also recorded” stand apart in the source; their conditions may differ.

Legend:
[1] = test system: anti-CD19 CAR-expressing T cells; test: Cytokine release in co-culture supernatants; assay type: cell-based, human; conditions: for GM-CSF level in supernatant / IFNγ level in supernatant / TNFα level in supernatant: epacadostat 10, 100 or 1000 nM or supplemental tryptophan, compared to no addition; for IL-2 levels in supernatant: for up to 72 hours, levels decreased at 96 hours
[2] = test system: CD4+ and CD8+ CAR-expressing T cells; test: CD25 surface expression on CD4+ and CD8+ CAR-expressing T cells (flow cytometry); assay type: cell-based, human
[3] = test system: CAR-expressing T cells; test: CAR T function in tryptophan-depleted media with supplemental tryptophan; assay type: cell-based, human
Experimental: Effects of tryptophan starvation on antigen-induced function of CAR-T cells were assessed. CAR-expressing T cells labeled with CellTrace™ violet were co-cultured with target cells (K562 human myelogenous leukemia target cells transduced with CD19 (CD19.K562)) that had been observed not to induce IDO1-expression, in tryptophan-depleted media, with or without the addition of various concentrations of supplemental tryptophan. Tryptophan-containing media was used as a control (Trp Control). Target cell count and proliferation (assessed by flow cytometry via CTV dye dilution; MFI=mean fluorescence intensity).
A similar study was carried out to assess effects of tryptophan-starvation, but in which CAR-mediated function was induced using an agonistic anti-idiotype antibody specific for the CAR as opposed to antigen-expressing target cells. Anti-CD19 CAR-expressing cells, generated substantially as described in Example 1, were stimulated for 96 hours using plate-bound anti-idiotypic agonistic antibody, in tryptophan-depleted media, alone or supplemented with various concentrations of tryptophan. The number of CD3^+ cells per well was determined. Representative results from exemplary studies are shown in FIG. 15D and FIG. 15E (results from three different donors). […]

[4] = test system: anti-CD19 CAR-expressing cells; test: Intracellular cytokines after re-exposure to antigen following tryptophan starvation; assay type: cell-based, human; conditions: tryptophan supplementation in the subsequent culture
Experimental: Effect of tryptophan starvation on CAR-T function (proliferation, cytokine production) following subsequent re-exposure to antigen was assessed. […] The cells were harvested, counted and re-cultured with fresh CD19-expressing A549 target cells (CD19.A549) in tryptophan-depleted media (media from the “no tx” cultures at 96 hours) with or without supplemented tryptophan. Intracellular levels of interferon-gamma (IFNγ) and interlekukin-2 (IL-2) were assessed by intracellular cytokine staining, and the percentage of CD4+ or CD8+ cells deemed positive for the given intracellular cytokine production was determined.

[5] = test system: anti-CD19 CAR-expressing T cells; test: Recovery from tryptophan starvation; assay type: cell-based, human; conditions: supplemental tryptophan added after starvation, out to 96 hours
Experimental: Anti-CD19 CAR-expressing T cells, generated as described in Example 1, were cultured in tryptophan starvation conditions (chemically defined tryptophan-free media) for 24, 48, 72 or 96 hours (24, 48, 72 or 96 hr Trp starv.). After tryptophan starvation for the indicated time, supplemental tryptophan was added to the cultures. The cells then were cultured in the presence of tryptophan until the cells were harvested at 24, 48, 72 or 96 hours. As a control, reflecting tryptophan sufficient conditions, cells were cultured in tryptophan-sufficient media for each respective time period (complete media). The number of CD3^+ cells per well was assessed. Intracellular production of interferon-gamma (IFNγ) and tumor necrosis factor alpha (TNFα) was assessed by intracellular cytokine staining, and the percentage of CD4+ or CD8+ cells positive for cytokine accumulation was determined.

[6] = test system: anti-CD19 CAR-expressing T cells; test: CAR T cell counts and proliferation with IDO1 inhibitor or supplemental tryptophan in co-culture with CD19.A549; assay type: cell-based, human; conditions: 5 μg/mL added every 24 hours, 96 hours with IDO1+ A549.CD19, compared to no treatment
Experimental: Proliferation was assessed by flow cytometry, and CAR+ T cell count in each well was determined.

[7] = test system: anti-ROR1 CAR-expressing T cells; test: Proliferation of anti-ROR1 CAR T cells co-cultured with CD19.A549 cells; assay type: cell-based, human; conditions: 250 nM, E:T 3:1, 96 hours, compared to absence of inhibitor
Description: Similar methods were used to assess the effect of the IDO1 inhibitor on proliferation of anti-ROR1 CAR-expressing T cells cultured in the presence of antigen-expressing target cells.

[8] = test system: CD19.A549; test: Cytolytic activity of anti-CD19 CAR T cells (Incucyte, NucRed-labeled targets); assay type: cell-based, human; conditions: 0 to 1000 nM, 0.25:1 E:T, up to approximately 340 hours
Experimental: Lysis of target cells was measured over time using the Incucyte quantitative cell analysis system (Essen BioScience) by assessing the staining intensity of cells for the NucRed dye.

[9] = test system: CAR T cells; test: CAR T cell proliferation in the presence of IDO1+ HS-5 bystander cells; assay type: cell-based, human; conditions: with or without HS-5 cells, 96 hours, various concentrations
Experimental: Proliferation of CAR T cells in the presence of IDO1-expressing bone marrow stromal cells or an IDO1 inhibitor was determined.

[10] = test system: anti-CD19 CAR-expressing T cells; test: Proliferation of anti-CD19 CAR T cells co-cultured with IDO1- target cells (CD19.Daudi, K562.CD19); assay type: cell-based, human; conditions: co-culture with IDO1- cells, various concentrations
Experimental: (§1) Similar methods were used to assess the effect of the IDO1 inhibitor on proliferation of CAR-expressing T cells following co-culture of anti-CD19 CAR-expressing cells with either IDO1^+ cells (A549.CD19) or IDO1^− cells (K562.CD19). […] The average number of CAR T cell divisions was calculated based on peaks in dye dilution, and proliferation of CD4^+ and CD8^+ subsets was compared.

[11] = test system: anti-CD19 CAR-expressing T cells; test: Sustained expansion of anti-CD19 CAR T cells (% confluency over time); assay type: cell-based, human
Experimental: Expansion of anti-CD19 expressing CAR cells following co-culture with A549 adenocarcinoma human alveolar basal epithelial cells transduced with human CD19 (CD19.A549 cells) was assessed for over 10 days. […] Expansion was assessed based on % confluency in the culture as determined over time. […] The IDO1 inhibitor-promoted increase in expansion was sustained for more than 10 days in culture. The results were consistent with a conclusion that IDO-upregulation and/or IDO-dependent signaling can occur or be promoted following CAR-T antigen-specific activation and result in dampening of proliferation of the CAR-T cells, e.g., over a 5- or 10-day period, and that inhibition of IDO can in some contexts rescue such inhibition.

[12] = test system: anti-CD19 CAR-expressing T cells; test: Proliferation of anti-CD19 CAR T cells co-cultured with IDO1+ CD19.A549 cells (CellTrace violet dilution, bead counts, microscopy); assay type: cell-based, human
Experimental: Cells were stained for expression of CD4 and CD8 and proliferation of T cell populations determined by flow cytometry, based on the extent of dilution of the CellTrace™ Violet dye.
Similar methods were used to assess proliferation of anti-CD19 CAR-expressing T cells generated from three different healthy donors following co-culture with CD19-expressing A549 target cells (CD19.A549).
The number of CAR T cells in each well was determined using CountBright Absolute Counting beads.
as §1
Cells were visualized at 72 hours and 120 hours.

[13] = test system: anti-CD19 CAR-expressing T cells; test: Effect of tryptophan metabolites on CAR T proliferation with IDO1- target cells; assay type: cell-based, human; conditions: 96 hours; for CAR T cell proliferation: CD19.Daudi target cells, 0 to 100 μM; for CAR T cell numbers (CD3+ cells per well): CD19.K562 target cells, 6.25 to 100 μM
Experimental: Cells were stained for surface expression of CD4 and CD8. Proliferation of T cell populations was determined by flow cytometry, based on the extent of dilution of the CellTrace™ violet dye. […] The number of CD3^+ cells per well was determined using CountBright beads.

[14] = test system: CD19.A549 cells; test: IDO1 expression in CD19.A549 cells after IFNγ stimulation (flow cytometry); assay type: cell-based, human
Experimental: (§2) A549 adenocarcinoma human alveolar basal epithelial cells transduced with human CD19 (CD19.A549 cells, which may also referred to as A549.CD19 cells) were assessed for expression of indoleamine-pyrrole 2,3-dioxygenase 1 (IDO1) following stimulation with interferon-gamma (IFNγ). CD19.A549 cells were stimulated with IFNγ for 24 or 48 hours and IDO1 levels were assessed by flow cytometry using an anti-IDO antibody. […] Increased IDO1 expression was not detected in other CD19^+ tumor cell lines in this assay, including JeKo-1, Daudi, Raji and Nalm-6 cells, following incubation with IFNγ under similar conditions.
CD19.A549 cells were cultured with various concentrations of recombinant human IFNγ.

[15] = test system: JeKo-1, Daudi, Raji and Nalm-6 cells; test: IDO1 expression in other CD19+ tumor cell lines after IFNγ incubation; assay type: cell-based, human; conditions: incubation with IFNγ under similar conditions
Experimental: as §2

[16] = test system: dendritic cells; test: IDO1 expression in dendritic cells after IFNγ and/or LPS stimulation; assay type: cell-based; conditions: dendritic cells (DC), 24 hours stimulation
Experimental: To assess whether myeloid cells present in the TME, including tumor-associated macrophages and dendritic cells, can be induced to express IDO1, the expression level of IDO1 in dendritic cells and macrophages upon stimulation by interferon-gamma (IFNγ) or lipopolysaccharide (LPS) was determined by flow cytometry. Dendritic cells were subject to monoculture with GM-CSF and interleukin-4 (IL-4), and macrophages were subject to monoculture with M-CSF, for 6 days. After monoculture, the cells were stimulated with IFNγ and/or LPS for 24 hours, and IDO1 expression was determined by flow cytometry.

[17] = test system: HS-5 human bone marrow stromal cells; test: IDO1 expression in HS-5 bone marrow stromal cells after IFNγ; assay type: cell-based; conditions: 20 ng/mL recombinant human IFNγ, 24 hours
Experimental: Expression level of Indoleamine-Pyrrole 2,3-Dioxygenase 1 (IDO1) was determined in bone marrow stromal cells upon stimulation by interferon-gamma (IFNγ) or with co-incubation with CAR-expressing T cells. Bone marrow stromal cells are exemplary of bystander cells, e.g., non-tumor cells, present in the TME.
HS-5 human bone marrow stromal cells were stimulated with 20 ng/mL recombinant human IFNγ for 24 hours.

[18] = supplemental tryptophan or 100 nM or 1000 nM epacadostat, co-culture with CD19.A549

N[C@@H](Cc1c[nH]c2ccccc12)C(=O)O [tryptophan]
GM-CSF level in supernatant [1]: increased level
IFNγ level in supernatant [1]: increased level
TNFα level in supernatant [1]: increased level
IL-2 levels in supernatant [1]: increased
CD25 surface expression (MFI) [2, 18]: reduced
inhibitory effect of tryptophan starvation on antigen-specific function of CAR T cells ([3]; CD19.K562 target cells, tryptophan-depleted media): reversed
inhibition of CAR-mediated function by tryptophan starvation (CD3+ cells per well) ([3]; plate-bound anti-idiotypic agonistic antibody, 96 hours): restored
reduction in cytokine production (IFNγ, IL-2) after re-encounter with target cells [4]: partially restored
proliferative capacity after tryptophan starvation [5]: did not completely restore proliferative capacity
proliferation of CAR-T cells [6]: restored proliferation of the CAR-T cells

NS(=O)(=O)NCCNc1nonc1C(=NO)Nc1ccc(F)c(Br)c1 [epacadostat, 4-({2-[(aminosulfonyl)amino]ethyl}amino)-N-(3-bromo-4-fluorophenyl)-N′-hydroxy-1,2,5-oxadiazole-3-carboximidamide]
number of CAR T cells [7]: higher number of CAR T cells
TNFα production ([1]; 48 hours, 1:1 E:T with CD19.A549, various concentrations): increased TNFα production
GM-CSF level in supernatant [1]: increased level
IFNγ level in supernatant [1]: increased level
TNFα level in supernatant [1]: increased level
IL-2 levels in supernatant [1]: increased
NucRed dye intensity of target cells (AUC) [8]: dose-dependent reduction of NucRed dye intensity
CD25 surface expression (MFI) ([2]; 96 hours co-culture with IDO1+ CD19.A549 cells, 1:1 E:T): reduced
CD25 surface expression ([2]; 96 hours co-culture with IDO1- CD19.Daudi cells): not affected
CD25 surface expression (MFI) [2, 18]: reduced
proliferation of CAR T cells [9]: not substantially affected
proliferation of CD4+ and CD8+ CAR-expressing T cells [10]: not when co-cultured with IDO1^− cells (Daudi)
expansion of CAR-expressing T cells (% confluency) ([11]; 0 to 1000 nM, up to approximately 340 hours): increasing expansion of CAR-expressing T cells
duration of inhibitor-promoted increase in expansion ([11]; in culture with CD19.A549): over 10 days
number of CAR T cells per well ([12]; 250 nM, 96 hours, three donors, compared to absence of inhibitor): higher number CAR T cells
CAR-expressing T cells visualized by microscopy ([12]; 1 μM, 120 hours, 1:1 E:T, compared to no inhibitor): large increase in CAR-expressing T cells
EC50 ([12]; Homo sapiens, co-culture with A549 cells (IDO1+), 1:1 E:T, read-out: estimated EC50 (CAR T proliferation)): ~223 nM
proliferation of CD4+ and CD8+ CAR-expressing T cells ([12]; co-culture with IDO1+ CD19.A549 cells, 96 hours, various concentrations): dose-dependent increase in proliferation; also recorded: increased proliferation

Nc1ccccc1C(=O)C[C@H](N)C(=O)O [L-Kynurenine]
CAR T cell proliferation [13]: did not inhibit CAR T cell proliferation
CAR T cell numbers (CD3+ cells per well) [13]: did not substantially affect CAR T cell numbers

Nc1c(O)cccc1C(=O)O [3-HAA, 3-hydroxyanthranilic acid]
CAR T cell proliferation [13]: did not inhibit CAR T cell proliferation
CAR T cell numbers (CD3+ cells per well) [13]: did not substantially affect CAR T cell numbers

IFNγ: interferon-gamma (IFNγ), recombinant human
IDO1 expression ([14]; IFNγ stimulation for 24 and 48 hours, compared to unstimulated cells): increased expression of endogenous IDO1
IDO1 expression (MFI) ([14]; various concentrations of recombinant human IFNγ): dose-responsive increase in IDO1 expression
IDO1 expression [15]: not detected
IDO1 expression [16]: induced IDO1 expression
IDO1 expression [17]: increase of IDO1 expression
